US20110217727A1, “METHOD FOR PATTERNING MAGNETIC MATERIALS IN LIVE CELL, METHOD FOR IMAGING PATTERN OF MAGNETIC MATERIALS, AND APPARATUS USED FOR SAME” (MEDISCOV INC., priority 2008, published 2011)

Legend:
[1] = target: T1, SNF1LK-EGFP (Homo sapiens, UniProt P57059); test: Fluorescent pattern of SNF1LK-EGFP co-localized with magnetic materials in live HeLa cells under a magnetic field; type: cell-based; conditions: HeLa cells transfected with CMV-SNF1LK-EGFP; ligand presented on magnetic particles (MNP); NDGA 25~50 μM; magnetic field applied; FIG. 10(B)
T1 construct: ORF(open reading frame) clone without a stop codon was purchased from Open Biosystems; expressed in transfected cells; host or cells: HeLa
T1 sequence (P57059 whole entry): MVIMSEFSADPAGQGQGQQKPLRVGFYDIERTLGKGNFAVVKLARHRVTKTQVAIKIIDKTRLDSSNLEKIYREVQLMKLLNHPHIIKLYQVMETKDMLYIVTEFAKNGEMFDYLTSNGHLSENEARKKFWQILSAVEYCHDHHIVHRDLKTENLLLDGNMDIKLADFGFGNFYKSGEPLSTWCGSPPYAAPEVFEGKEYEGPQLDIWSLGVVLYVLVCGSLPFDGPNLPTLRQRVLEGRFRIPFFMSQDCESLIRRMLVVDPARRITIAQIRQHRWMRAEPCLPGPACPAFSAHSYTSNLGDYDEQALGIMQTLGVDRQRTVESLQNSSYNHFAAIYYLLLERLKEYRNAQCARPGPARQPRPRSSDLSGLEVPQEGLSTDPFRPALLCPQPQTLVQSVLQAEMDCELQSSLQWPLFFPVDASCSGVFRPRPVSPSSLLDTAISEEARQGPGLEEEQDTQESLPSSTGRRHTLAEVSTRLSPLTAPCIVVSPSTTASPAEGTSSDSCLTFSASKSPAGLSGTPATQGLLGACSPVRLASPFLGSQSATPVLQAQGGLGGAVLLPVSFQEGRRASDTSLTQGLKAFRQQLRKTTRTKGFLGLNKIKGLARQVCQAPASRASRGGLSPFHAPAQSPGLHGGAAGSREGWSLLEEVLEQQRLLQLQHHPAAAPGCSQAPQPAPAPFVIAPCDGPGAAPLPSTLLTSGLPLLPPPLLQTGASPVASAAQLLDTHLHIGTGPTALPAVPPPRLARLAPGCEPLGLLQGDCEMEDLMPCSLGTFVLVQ
Excerpt: (§1) In this embodiment, it was observed whether a magnetized pattern of a plurality of magnetic materials formed by applying a magnetic field could be imaged by fluorescent labels when a surface-modified magnetic material was labeled with a fluorescent label through a mediator indirectly as well as directly. In addition, it was identified whether a fluorescent pattern was formed and overlapped (co-localized) with a pattern formed by magnetic materials in a direction of a line of magnetic force or not.
(§2) In addition, CSK (GenBank Acc. No. NM—004383.1) or SNF1LK (GenBank Acc. No. BCO38504) which binds to dasatinib was used for another linker constituting a mediator.
A clone of SNF1LK (GenBank Acc. No. BCO38504) ORF(open reading frame) clone without a stop codon was purchased from Open Biosystems. SNF1LK ORF clone and CSK ORF clone were cloned into pCMV-DEST-EGFP by a known cloning method to produce CMV-SNF1LK-EGFP and CMV-CSK-EGFP expression vectors (Hartley, et al. (2000) DNA cloning using in vitro site-specific recombination. Genome Res. 10, 1788-1795).
After HeLa cells were subcultured to 5,000˜10,000 cells/well on a 96-well plate, the HeLa cells were transfected by the expression vector DNA prepared as above. […]

[2] = target: CSK-EGFP (Homo sapiens, UniProt P41240); test: Fluorescent pattern of CSK-EGFP co-localized with magnetic materials in live HeLa cells under a magnetic field; type: cell-based; conditions: HeLa cells transfected with CMV-CSK-EGFP; ligand presented on magnetic particles (MNP); NDGA 25~50 μM; magnetic field applied; FIG. 10(A)
Excerpt: as §1, §2
After HeLa cells were subcultured to 5,000˜10,000 cells/well on a 96-well plate, the HeLa cells were transfected by the expression vector DNA prepared as above. […] Magnetic materials coated with dasatinib-biotin were into the cells transfected with DNA by the method mentioned in Example 2, and then NDGA (Nordihydroguaiaretic acid, Sigma) was treated to the final concentration of 25˜50 μM.
In this embodiment, Olympus fluorescence microscope, FV1000, equipped with the object lens of Uplan Apo 40×/0.85 was used to obtain transmitted images in the cells.

fluorescent pattern of EGFP in a magnetized direction (direction of a line of magnetic force) [1]: identified | fluorescent pattern of EGFP in a magnetized direction (direction of a line of magnetic force) [2]: identified
Compound: Cc1nc(Nc2ncc(C(=O)Nc3c(C)cccc3Cl)s2)cc(N2CCN(CCO)CC2)n1 [dasatinib, N-(2-chloro-6-methyl-phenyl)-2-(6-(4-(2-hydroxyethyl)-piperazin-1-yl)-2-methylpyrimidin-4-ylamino)thiazole-5-carboxamide]
